In PubChem BioAssay (NCI):
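Values below derive from 48-hour exposures of cells grown in 96-well plates, with endpoints linearly interpolated between the two concentrations bracketing the appropriate inhibition level. At the GI50, growth is halved. The concentration for full growth arrest is given as TGI.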

How the values were obtained:
Assay in all cases: NCI-60 cell line screen, 48 h
786-0 renal = system: 786-0 renal
HCT-15 colon = system: HCT-15 colon
UACC-257 melanoma = system: UACC-257 melanoma
SK-MEL-2 melanoma = system: SK-MEL-2 melanoma
RPMI-8226 leukemia = system: RPMI-8226 leukemia
MDA-N = system: MDA-N
NCI-H23 lung = system: NCI-H23 lung
COLO 205 colon = system: COLO 205 colon
MDA-MB-231 breast = system: MDA-MB-231 breast
M14 melanoma = system: M14 melanoma
HCC-2998 colon = system: HCC-2998 colon

Structure (SMILES)	TGI (786-0 renal)	TGI (HCT-15 colon)	TGI (UACC-257 melanoma)	TGI (SK-MEL-2 melanoma)	TGI (RPMI-8226 leukemia)	TGI (MDA-N)	TGI (NCI-H23 lung)	TGI (COLO 205 colon)	TGI (MDA-MB-231 breast)	TGI (M14 melanoma)	TGI (HCC-2998 colon)	GI50 (HCT-15 colon)	GI50 (SK-MEL-2 melanoma)	GI50 (RPMI-8226 leukemia)	GI50 (NCI-H23 lung)	GI50 (HCC-2998 colon)	GI50 (COLO 205 colon)	GI50 (MDA-MB-231 breast)	GI50 (M14 melanoma)	GI50 (UACC-257 melanoma)
Cc1ccnc(NS(=O)(=O)c2ccc(N=[N+]=[N-])cc2)n1	> 100 µM	> 100 µM	> 100 µM	> 100 µM	> 100 µM	> 100 µM	> 100 µM	> 100 µM	> 100 µM	> 100 µM										
CCOC(=O)Nc1sc2c(c1C#N)CCCC2	> 100 µM	> 100 µM	> 100 µM	> 100 µM	> 100 µM	> 100 µM	> 100 µM	> 100 µM	> 100 µM		> 100 µM									
O=C1c2cc3c(cc2-c2c1c1ccc(F)cc1c(=O)n2C[C@H](O)[C@@H](O)[C@H](O)CO)OCO3		0.766 µM		0.375 µM	4.18 µM		0.256 µM	0.546 µM	0.984 µM	0.599 µM	0.38 µM	0.183 µM	0.18 µM	0.422 µM	0.046 µM	0.14 µM	0.106 µM	0.325 µM	0.0443 µM	
COC(=O)[C@@H](O)[C@](O)(CCC(C)C)C(=O)O[C@@H]1C(OC)=C[C@]23CCCN2CCc2cc4c(cc2[C@H]13)OCO4		7.33 µM	6.06 µM	9.15 µM	6.06 µM		5.7 µM	2.99 µM			2.32 µM									
CC1(C(=O)O)CCC2(C)CCC3(C)C(=CC(=O)C4C5(C)CCC(O)C(C)(C)C5CCC43C)C2C1 (stereo unspecified)	> 100 µM	85.4 µM	> 100 µM	92.4 µM		> 100 µM	44.8 µM	> 100 µM		> 100 µM	87.3 µM									
Cc1ccc(NC(=O)CC2Sc3ccccc3NC2=O)cc1C (stereo unspecified)		> 100 µM	> 100 µM	> 100 µM	> 100 µM		> 100 µM	> 100 µM		> 100 µM	> 100 µM									
CC(=O)N1C(C(=O)NC2CCCCC2)CSC1c1ccccc1 (stereo unspecified)	> 100 µM	> 100 µM	> 100 µM	> 100 µM	> 100 µM	> 100 µM	> 100 µM			> 100 µM	> 100 µM									
CCN(CC)CCNC(=O)c1cc2cc(NC(=O)c3cc4cc([N+](=O)[O-])ccc4[nH]3)ccc2[nH]1		> 100 µM	> 87.1 µM	> 100 µM	9.63 µM	> 100 µM	> 100 µM	28.9 µM	> 100 µM	> 100 µM	> 73.6 µM									
Nc1nc(SCCC/C=C/I)nc2c1ncn2C1OC(COP(=O)(O)O)C(O)C1O (stereo unspecified)		> 100 µM	> 100 µM	> 100 µM			> 100 µM	> 100 µM		> 100 µM	> 100 µM									
C=CC1(CC/C(=C\[N+](=O)[O-])c2ccc(OC)c(OC)c2)OCC(C)(C)CO1	37.9 µM	38.6 µM	26.8 µM	37.7 µM		55.5 µM	37 µM	43.4 µM	75.8 µM	39.6 µM	46.2 µM									
CCC(=O)NC(Nc1cc(C)on1)(C(F)(F)F)C(F)(F)F	> 100 µM	> 100 µM	> 100 µM	> 100 µM	> 100 µM		> 100 µM		> 100 µM	> 100 µM	> 100 µM									
CCOP(=O)(OCC)C(F)(F)c1ccc(CC(NC(=O)OC(C)(C)C)C(=O)O)cc1 (stereo unspecified)	> 10 µM	> 10 µM	> 10 µM			> 10 µM	> 10 µM	> 10 µM	> 10 µM	> 10 µM	> 10 µM									
O=C(N/N=C/c1ccc(Cl)cc1)c1c(Cl)c(Cl)c(Cl)c(Cl)c1-c1nc2ccccc2[nH]1	> 100 µM	> 100 µM		> 100 µM	> 100 µM	> 100 µM	> 100 µM	> 100 µM		> 100 µM	> 100 µM									
Cn1c2ccc3cc2c(=S)c2cc(ccc21)OCCOCCOCCOCCOCCOCCO3	> 10 µM	> 10 µM	> 10 µM	> 10 µM	> 10 µM	> 10 µM	> 10 µM	> 10 µM		> 10 µM	> 10 µM									
CC(=O)Oc1cccc2c1C(=O)CCCC2	> 100 µM	> 100 µM	> 100 µM	> 100 µM			> 100 µM	> 100 µM	> 100 µM	> 100 µM	> 100 µM									
COC(=O)C1=C(C(=O)OC)SC(=C2SCSC3=C2SC(C(=O)OC)=C(C(=O)OC)C32SC3=C(CCCC3)S2)S1	> 100 µM	> 100 µM	> 100 µM	> 100 µM		> 100 µM	> 100 µM	> 100 µM	> 100 µM	> 100 µM	> 100 µM									
Cc1cccc(Cn2c3c(c4cc(O)ccc42)C(=O)c2ccccc2C3=O)c1	26.6 µM	> 100 µM	> 100 µM	> 100 µM	> 30.6 µM	> 100 µM	> 100 µM	> 100 µM	> 70.8 µM	> 100 µM										
O=C(OCc1ccccc1)N1CCNCCN(C(=O)OCc2ccccc2)CCNCC1	47.9 µM	> 100 µM	46.3 µM	42.3 µM	47.3 µM	31 µM														
C[C@]12CC[C@H](O)CC1=CC[C@@H]1[C@@H]2CC[C@]2(C)C(=N/N)/C(=N\O)C[C@@H]12	> 100 µM	> 100 µM	> 100 µM	> 100 µM	> 100 µM	48.2 µM	> 100 µM	> 100 µM	> 100 µM	> 100 µM										
CCC(=O)NCC1CCCN2CCCCC12 (stereo unspecified)	> 100 µM	> 100 µM	> 100 µM	> 100 µM	> 100 µM	> 100 µM	> 100 µM	> 100 µM	> 100 µM		> 100 µM									
COc1ccc(CN2C(=O)/C(=C\c3cc(OC)c(OC)c(OC)c3)c3ccccc32)cc1		3.86 µM	6.67 µM	4.11 µM	7.57 µM		6.43 µM	3.44 µM	> 100 µM	5.48 µM	3.31 µM	1.9 µM	1.87 µM	2.47 µM	2.35 µM	1.78 µM	1.89 µM	3.34 µM	2.41 µM	2.15 µM
